Values quoted from earlier work as cited in patent US20140314667A1, “METHODS OF TREATING EPIDERMAL GROWTH FACTOR DELETION MUTANT VIII RELATED DISORDERS” (AMGEN INC., priority 2011, published 2014).

How the values were obtained:
L1210 cells = details: Sieber et al.; untreated control mitotic index 3.2 to 5.8%; cited from earlier work
[1] = system: P388 lymphocytic leukemia system; details: Kupchan 1974; cited from earlier work
[2] = system: P388, L1210, and LY5178 murine leukemic cell suspensions; details: in vitro; cited from earlier work
[3] = system: human acute lymphoblastic leukemia line CEM; details: in vitro, Wolpert-DeFillippes et al.; cited from earlier work
[4] = system: L1210 mouse leukemia system, the human Lewis lung carcinoma system and the human B-16 melanocarcinoma system; details: Kupchan 1974; cited from earlier work
[5] = U.S. Pat. No. 3,896,111; cited from earlier work

**Q.** For `COc1cc2cc(c1Cl)N(C)C(=O)C[C@H](OC(=O)[C@H](C)N(C)C(C)=O)[C@]1(C)O[C@H]1[C@H](C)[C@@H]1C[C@@](O)(NC(=O)O1)[C@H](OC)/C=C/C=C(\C)C2` [Maytansine], which “cells accumulating in mitosis” value (L1210 cells) is on record?
**A.** Its value is 67%.

**Q.** And the “dosage range over which tumor growth was inhibited” value [1]?
**A.** The value was 50- to 100 fold.

**Q.** What about the inhibitory doses [2] of the same compound?
**A.** The inhibitory doses was 10^−3 to 10^−1 µg/µl.

**Q.** What about the inhibitory concentration [3] of the same compound?
**A.** The inhibitory concentration was ≥ 10^−7 mg/ml.

**Q.** What about the inhibitory activity [4] of the same compound?
**A.** The inhibitory activity was “significant inhibitory activity”.

**Q.** And the “more cytotoxic than conventional cancer chemotherapeutic agents like methotrexate, daunorubicin, and vincristine” value [5]?
**A.** The value was 100 to 1000 fold.
